Laboratory results as given in US20110250266A1, “LIPOSOMAL SYSTEMS COMPRISING SPHINGOMYELIN” (Yissum Research Development Company of the Hebrew …, priority 2008, published 2011).
Where “and” joins values, the source holds several entries; their conditions need not be identical. Identical values can stand only once. Counter-ions that a name gives are not always drawn.

What was measured:
[1] = system: mouse; experiment: Maximal tolerated dose of free BUP; type: in vivo
[2] = system: Mice (male Swiss-Webster); experiment: Analgesic efficacy in mouse model (electrical stimulation of abdominal skin, vocalization threshold); type: in vivo; set-up: key: 1 = analgesia; 0 = no analgesia; 10 = partial analgesia
Description: Testing for analgesia was done by electrical stimulation of the skin directly overlying the abdomen at the site of injection using a current generator (model S48, Grass Instruments).
Mice (male Swiss-Webster, 26±3 gr) were tested prior to injection to determine the vocalization threshold than were injected with encapsulation BUP liposomes than determine analgesic duration (G. J. Grant et al, pharmaceutical research, vol 18, no. 3, 336-343, 2001).
In order to evaluate the effect of altering the volume and BUP concentration of the injection, in each group, three mice received 150 μL of the 2% formulation and 3 mice received 300 μL of a 1:1 diluted 2% formulation.
In these Tables, an numeric score of “1” denotes full analgesia, a numeric score of “0” was given when there was no analgesic effect, and a numeric value of “10” when there was partial analgesia.
As indicated above, the numerical score to the spreadsheet was introduced for the evaluation of the analgesic effect of various liposome preparations performance in vivo: For each time period (e.g. 4 hrs, 8 hrs etc) a numeric value of 1 was given if the anesthesia was complete; 10 or 0.5 was given when analgesia was partial (incomplete) and 0 for no anesthesia. The mean for each subgroup was calculated separately (i.e. 1% 300 μl, 2% 150 μg).

[3] = individual mice, Bup conc 0.25%, volume 150 ul, 0.375 mg Bup
[4] = individual mice, Bup conc 0.25%, volume 150 ul, 0.375 mg Bup, hydrochloride
[5] = individual mice, Bup conc 0.25%, volume 300 ul, 0.75 mg Bup
[6] = individual mice, Bup conc 0.25%, volume 300 ul, 0.75 mg Bup, hydrochloride
[7] = individual mice, Bup conc 0.50%, volume 150 ul, 0.75 mg Bup
[8] = individual mice, Bup conc 0.50%, volume 150 ul, 0.75 mg Bup, hydrochloride
[9] = mice, 0.25%, 150 ul, 0.375 mg Bup
[10] = mice, 0.25%, 150 ul, 0.375 mg Bup, hydrochloride
[11] = mice, 0.25%, 300 ul, 0.75 mg Bup
[12] = mice, 0.25%, 300 ul, 0.75 mg Bup, hydrochloride
[13] = mice, 0.50%, 150 ul, 0.75 mg Bup
[14] = mice, 0.50%, 150 ul, 0.75 mg Bup, hydrochloride

With `CCCCN1CCCCC1C(=O)Nc1c(C)cccc1C` (stereo not drawn) [Standard Bupivacaine, Bupivacaine hydrochloride] the “maximal tolerated dose, MTD” value [1] was 0.75 mg/mouse, the “Analgesic effect score at 15 min” value [2, 3] was 1 and the “Analgesic effect score at 30 min” value [2, 3] was 1. The “Analgesic effect score at 45 min” value [2, 3] was 1, the “Analgesic effect score at 60 min” value [2, 4] was 0 (5×) and 1 (2×) and 10 and the “Analgesic effect score at 75 min” value [2, 4] was 0 (7×) and 10. For the same compound, the “Analgesic effect score at 90 min” value [2, 3] was 0, the “Analgesic effect score at 15 min” value [2, 5] was 1 and the “Analgesic effect score at 30 min” value [2, 5] was 1. The “Analgesic effect score at 45 min” value [2, 5] was 1, the “Analgesic effect score at 60 min” value [2, 5] was 1 and the “Analgesic effect score at 75 min” value [2, 6] was 0 and 1 (7×). For the same compound, the “Analgesic effect score at 90 min” value [2, 6] was 0 and 1 (5×) and 10 (2×), the “Analgesic effect score at 105 min” value [2, 6] was 0 (5×) and 10 and 1 (2×) and the “Analgesic effect score at 120 min” value ([2]; individual mice, Bup conc 0.25%, volume 300 ul, 0.75 mg Bup, 120 min, hydrochloride) was 0 (7×) and 10. The “Analgesic effect score at 135 min” value ([2]; individual mice, Bup conc 0.25%, volume 300 ul, 0.75 mg Bup, 135 min) was 0, the “Analgesic effect score at 15 min” value [2, 7] was 1 and the “Analgesic effect score at 30 min” value [2, 7] was 1. The “Analgesic effect score at 45 min” value [2, 7] was 1, the “Analgesic effect score at 60 min” value [2, 8] was 1 (7×) and 10 and the “Analgesic effect score at 75 min” value [2, 8] was 1 (6×) and 0 and 10. For the same compound, the “Analgesic effect score at 90 min” value [2, 8] was 0 (4×) and 10 (2×) and 1 (2×), the “Analgesic effect score at 105 min” value [2, 7] was 0 and the “analgesia 15 min” value [2, 9] was 1. The “analgesia 30 min” value [2, 9] was 1, the “analgesia 45 min” value [2, 9] was 1 and the “analgesia 60 min” value [2, 10] was 0 and 1 and 10. For the same compound, the “analgesia 75 min” value [2, 10] was 0 and 10, the “analgesia 90 min” value [2, 9] was 0 and the “analgesia 15 min” value [2, 11] was 1. The “analgesia 30 min” value [2, 11] was 1, the “analgesia 45 min” value [2, 11] was 1 and the “analgesia 60 min” value [2, 11] was 1. For the same compound, the “analgesia 75 min” value [2, 12] was 0 and 1, the “analgesia 90 min” value [2, 12] was 0 and 1 and 10 and the “analgesia 105 min” value [2, 12] was 0 and 10 and 1. The “analgesia 120 min” value ([2]; mice, 0.25%, 300 ul, 0.75 mg Bup, 120 min, hydrochloride) was 0 and 10, the “analgesia 135 min” value ([2]; mice, 0.25%, 300 ul, 0.75 mg Bup, 135 min) was 0 and the “analgesia 15 min” value [2, 13] was 1. The “analgesia 30 min” value [2, 13] was 1, the “analgesia 45 min” value [2, 13] was 1 and the “analgesia 60 min” value [2, 14] was 1 and 10. For the same compound, the “analgesia 75 min” value [2, 14] was 1 and 0 and 10, the “analgesia 90 min” value [2, 14] was 0 and 10 and 1 and the “analgesia 105 min” value [2, 13] was 0.
